Experimental data taken from patent publication US11583524B2, “Inhibitors of the interaction between MDM2 and P53” (Janssen Pharmaceutica NV, priority 2007, dated 2023).

Tests used:
Type in all cases: cell-based, human
p53 in A2780 cells = assay: p53 ELISA (preservation of p53 in A2780 cells); details: lowest dose giving at least 140% of the p53 value in the control, 16 hours treatment; for minimal effective concentration: Homo sapiens, read-out: p53-elisa LAD
Procedure: The capacity of the compounds to preserve p53 in A2780 cells was measured with the p53 enzyme linked immunosorbent assay (ELISA). The p53 assay is a “sandwich” enzyme immunoassay employing two polyclonal antibodies. A polyclonal antibody, specific for the p53 protein, has been immobilized onto the surface of the plastic wells. Any p53 present in the sample to be assayed will bind to the capture antibody. The biotinylated detector polyclonal antibody also recognizes p53 protein, and will bind to any p53, which has been retained by the capture antibody. The detector antibody, in turn, is bound by horseradish peroxidase-conjugated streptavidin. The horseradish peroxidase catalyses the conversion of the chromogenic substrate o-phenylene diamine, the intensity of which is proportional to the amount of p53 protein bound to the plate. The coloured reaction product is quantified using a spectrophotometer. Quantitation is achieved by the construction of a standard curve using known concentrations of purified recombinant HIS tagged p53 protein (see example C.1).
A2780 cells (ATCC) were cultivated in RPMI 1640 supplemented with 10% fetal calf serum (FCS), 2 mM L-glutamine and gentamycin at 37° C. in a humidified incubator with 5% CO2.
A2780 cells were seeded at 20.000 cells per well in a 96 well plate, cultured for 24 hours and treated with compound for 16 hours at 37° C. in a humidified incubator. After incubation, the cells were washed once with phosphate-buffered saline and 30 μl, per well, low salt RIPA buffer (20 mM tris, pH7.0, 0.5 mM EDTA, 1% Nonidet P40, 0.5% DOC, 0.05% SDS, 1 mM PMSF, 1 μg/ml aprotinin and 0.5 μ/ml leupeptin) was added. Plates were placed on ice for 30 minutes to complete the lysis. p53 protein was detected in de lysates by using the sandwich ELISA, described below.
High binding polystyrene EIA/RIA 96 well plates (Costar 9018) were coated with the capture antibody pAb1801 (Abcam ab28-100) at a concentration of 1 μg/ml in coating buffer (0.1 M NaHCO3 pH8.2), 50 μl per well. The antibody was allowed to adhere overnight at 4° C. Coated plates were washed once with phosphate-buffered saline (PBS)/0.05% Tween 20 and 300 μl of blocking buffer (PBS, 1% bovine serum albumins (BSA)) was added, for an incubation period of 2 hours at room temperature. Dilutions of purified recombinant HIS tagged p53 protein, ranging from 3-200 ng/ml, were made in blocking buffer and used as standards.
Plates were washed twice with PBS/0.05% Tween 20 and blocking buffer or standards were added at 80 μl/well. To the standards, 20 μl of lysis buffer was added. The samples were added to the other wells at 20 μl lysate/well. After an overnight incubation at 4° C., plates were washed twice with PBS/0.05% Tween 20. Aliquots of 100 μl secondary polyclonal antibody p53(FL-393) (Tebubio, sc-6243) at a concentration of 1 μg/ml in blocking buffer were added to each well and allowed to adhere for 2 hours at room temperature. Plates were washed three times with PBS/0.05% Tween 20. Detection antibody anti-rabbit HRP (sc-2004, Tebubio) at 0.04 μg/ml in PBS/1% BSA was added and incubated for 1 hour at room temperature. Plates were washed three times with PBS/0.05% Tween 20 and 100 μl of substrate buffer was added (substrate buffer was prepared shortly before use by adding 1 tablet of 10 mg o-phenylene diamine (OPD) from Sigma and 125 μl 3% H2O2 to 25 ml OPD buffer: 35 mM citric acid, 66 mM Na2HPO4, pH5.6). After 5 to 10 minutes, colour reaction was stopped by adding 50 μl stop buffer (1 M H2SO4) per well. The absorbance at dual wavelengths of 490/655 nm was measured using a Biorad micro plate reader and the results were then analyzed.
For each experiment, controls (containing no drug) and a blank incubation (containing no cells or drugs) were run in parallel. The blank value was subtracted from all control and sample values. For each sample, the value of p53 (in absorbance units) was expressed as the percentage of the value for p53 present in the control. […]

[1] = tested on: A2780 ovarian cancer cells; assay: Alamar Blue cell proliferation assay, A2780; details: 4-day incubation; for IC50: Homo sapiens, 96 h, read-out: A2780 cell proliferation inhibition pIC50 (converted)
Procedure: Cellular activity of the compounds of formula (I) was determined on A2780 tumour cells using a colorimetric assay for cell toxicity or survival (see example C.2).
The human A2780 ovarian cancer cells were a kind gift from Dr. T. C. Hamilton (Fox Chase Cancer Centre, Pennsylvania, U.S.A.). The cells were cultured in RPMI 1640 medium supplemented with 2 mM L-Glutamine, 50 μg/ml gentamicin and 10% fetal calf serum.
(§1) Resazurin was purchased from Aldrich (Prod. No. 199303). Potassium ferrocyanide, potassium ferricyanide, KH2PO4 and K2HPO4 were purchased from Sigma (Prod. Nos. P9387, P8131, P5655 and P8281, respectively).
(§2) Potassium Phosphate Buffer 0.1 M (PPB) was made as follows: 2.72 gram KH2PO4 and 13.86 gram K2HPO4 were dissolved in 500 ml milli-Q H2O, the pH was adjusted to pH 7.4 and the volume was brought to 1 litre with milli-Q H2O; the buffer was filter sterilised and stored at room temperature. Resazurin stock solution (PPB-A) was prepared fresh by dissolving 45 mg resazurin in 15 ml PBS. 30 mM potassium ferricyanide (PPB-B) was prepared by dissolving 0.987 gram potassium ferricyanide in 100 ml PPB. 30 mM potassium ferrocyanide (PPB-C) was prepared by dissolving 1.266 gram potassium ferrocyanide in 100 ml PPB.
(§3) Mixture of PPB-A, PPB-B and PPB-C was prepared by mixing equal volumes of the respective solutions. Resazurin work solution (herein termed “Alamar Blue” solution) was prepared by diluting said mixture 20×(vol/vol) in PPB and filter sterilising; the Alamar Blue solution could be kept at 4° C. for a maximum of 2 weeks.
(§4) For experiments in 384 wells plates the cells were seeded at a density of 5×10^3 cells/ml in Falcon 384-well culture plates (Life Technologies, Merelbeke, Belgium), black with clear bottom, in 45 μl culture medium. Cells were allowed to adhere to plastic for 24 hr. The tested compound was pre-diluted (1/50 in culture medium) and 5 μl pre-diluted compound was added to the wells. Following 4-day incubation, 10 μl of the Alamar Blue solution was added to each well and the cells were further incubated for 5 hrs (A2780) or 6 hrs (U87MG) at 37° C. The fluorescence intensity was measured for each well with a Fluorescence plate reader (Fluorskan, Labsystems, 540 nm excitation and 590 nm emission)
(§5) The antiproliferative activity was calculated as percentage of remaining viable cells in treated versus control (untreated cells) conditions. Within an experiment, the result for each experimental condition is the mean of 3 replicate wells. When appropriate, the experiments were repeated to establish full concentration-response curves. When appropriate, IC50-values (concentration of the drug, needed to reduce cell growth to 50% of the control) were computed using probit analysis for graded data (Finney, D. J., Probit Analyses, 2nd Ed. Chapter 10, Graded Responses, Cambridge University Press, Cambridge 1962). Herein the effects of test compounds are expressed as pIC50 (the negative log value of the IC50-value) (see Table 4).

U87MG glioma cells = assay: Alamar Blue cell proliferation assay, U87MG; details: 4-day incubation; for IC50: Homo sapiens, U-87 MG, 96 h, read-out: U87MG cell proliferation inhibition pIC50 (converted)
Procedure: The human U87MG glioma cells were cultured in DMEM medium supplemented with 2 mM L-Glutamine, 1 mM Sodium Pyruvate, 1.5 g/L Sodium Bicarbonate, 50 μg/ml gentamicin and 10% heat inactivated fetal calf serum. (U87MG cells are human glioblastoma cells with wild type p53. In this cell line MDM2 tightly controls p53 expression).
as §1, §2, §3, §4, §5

| Structure (SMILES) | IC50 [1] | IC50 (U87MG glioma cells) | A2780 cell proliferation inhibition pIC50 [1] | U87MG cell proliferation inhibition pIC50 (U87MG glioma cells) | minimal effective concentration (p53 in A2780 cells) | p53-elisa LAD (p53 in A2780 cells) |
| --- | --- | --- | --- | --- | --- | --- |
| COc1cccc2c(CCNc3c(Cl)cc(Nc4ccnc5ccccc45)cc3Cl)c[nH]c12 [Compound 32] |  |  | <5 | 5.48 |  | >10.0 µM |
| COc1ccc2c(CCNc3c(Cl)cc(Nc4ccncc4)cc3Cl)c[nH]c2c1 [Compound 22] |  |  | <5 | 5.29 |  | >10.0 µM |
| Cc1cccc2c(CCNc3c(Cl)cc(Nc4ccnc5c4CCC5O)cc3Cl)c[nH]c12 (centres unmarked) [Compound 35] |  |  | <5 | <5 |  | 1.0 µM |
| COc1cccc2c(CCNc3c(Cl)cc(Nc4ccncc4)cc3Cl)c[nH]c12 [Compound 23] |  |  | <5 | <5 |  | >10.0 µM |
| COc1ccc2c(CCNc3c(Cl)cc(Nc4ccnc(CO)c4)cc3Cl)c[nH]c2c1 [Compound 27] |  |  | <5 | <5 |  | >10.0 µM |
| OC1CCc2c(Nc3cc(Cl)c(NCCc4c[nH]c5ccccc45)c(Cl)c3)ccnc21 (centres unmarked) [Compound 33] |  |  | <5 | <5 |  | 3.0 µM |
| COc1ccc2c(CCNc3c(Cl)cc(Nc4ccnc5c4CCC5O)cc3Cl)c[nH]c2c1 (centres unmarked) [Compound 36] |  |  | <5 | 5.08 |  | 10.0 µM |
| COc1ccc2c(CCNc3c(F)cc(Nc4ccnc5c4CCC5O)cc3F)c[nH]c2c1 (centres unmarked) [Compound 19] |  |  | <5 | 5.15 |  | >10.0 µM |
| Cc1[nH]c2ccccc2c1CCNc1c(Cl)cc(Nc2ccnc3c2CCC3O)cc1Cl (centres unmarked) [Compound 34] |  |  | 5.67 | 5.14 |  | 1.0 µM |
| OCc1cc(Nc2cc(F)c(NCCc3c[nH]c4ccccc34)c(F)c2)ccn1 [Compound 14] | > 10000 nM | > 10000 nM |  |  | > 10 µM |  |
| COc1ccc2c(CCNc3c(F)cc(Nc4ccnc(CO)c4)cc3F)c[nH]c2c1 [Compound 16] |  |  | <5 | <5 |  | >10.0 µM |
| COc1cccc2c(CCNc3c(Cl)cc(Nc4ccnc(CO)c4)cc3Cl)c[nH]c12 [Compound 28] |  |  | <5 | <5 |  | >10.0 µM |

Now from value to molecule, other results behind:

| IC50 [1] | IC50 (U87MG glioma cells) | A2780 cell proliferation inhibition pIC50 [1] | U87MG cell proliferation inhibition pIC50 (U87MG glioma cells) | Structure (SMILES) | minimal effective concentration (p53 in A2780 cells) | p53-elisa LAD (p53 in A2780 cells) |
| --- | --- | --- | --- | --- | --- | --- |
| 74.1 nM | 468 nM |  |  | COc1c(Nc2ccnc3c2CCC3O)ccc(NCCc2c[nH]c3c(C(C)(C)O)cccc23)c1F (centres unmarked) [Compound 63] | 1 µM |  |
| 912 nM | 1290 nM |  |  | COc1c(Nc2ccnc3c2CCC3O)ccc(NCCc2c[nH]c3c(CO)cccc23)c1F (centres unmarked) [Compound 62] | 3 µM |  |
|  |  | <5 | <5 | COc1cccc2c(CCNc3c(Cl)cc(Nc4ccnc5c4CCC5O)cc3Cl)c[nH]c12 (centres unmarked) [Compound 37] |  | 3.0 µM |
|  |  | <5 | <5 | Cc1cccc2c(CCNc3ccc(Nc4ccnc5c4CCC5O)c(N4CCOCC4)c3C#N)c[nH]c12 (centres unmarked) [Compound 58] |  | >10.0 µM |
|  |  | <5 |  | OCc1cc(NCCc2c[nH]c3ccccc23)c(Br)cc1Nc1ccnc2c1CCC2O (centres unmarked) [Compound 54] |  | >10.0 µM |
|  |  | <5 | <5 | N#Cc1c(NCCc2c[nH]c3ccccc23)ccc(Nc2ccnc3c2CCC3O)c1N1CCOCC1 (centres unmarked) [Compound 57] |  | >10.0 µM |
|  |  | <5 | 5.33 | OCc1cc(Nc2cc(Br)c(NCCc3c[nH]c4ccccc34)cc2CO)ccn1 [Compound 52] |  | >10.0 µM |
